Measurements published in patent US20240368135A1 (VERTEX PHARMACEUTICALS INCORPORATED, priority 2021, published 2024).
Read-outs that look alike come from different tables or passages of the source.

Target: human NaV 1.8 (Homo sapiens, UniProt Q9Y5Y9)
Experiment: E-VIPR assay detecting and measuring NaV inhibition properties
Assay type: cell-based
Conditions: HEK cells expressing truncated human NaV 1.8
Procedure, shortened: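 HEK cells expressing truncated, fully active human NaV1.8, with KIR2.1 BacMam co-transduction, were loaded with CC2-DMPE/DiSBAC6(3) voltage-sensing dyes for 20 min at room temperature. Compounds were tested in 11-point 3-fold dilutions (300 nM top final), optionally with 25% human serum, under electrical stimulation with FRET read-out.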

[1] = no human serum, read-out: IC50 in the E-VIPR Assay

human NaV 1.8, sequence (Q9Y5Y9 126-399 limits assumed): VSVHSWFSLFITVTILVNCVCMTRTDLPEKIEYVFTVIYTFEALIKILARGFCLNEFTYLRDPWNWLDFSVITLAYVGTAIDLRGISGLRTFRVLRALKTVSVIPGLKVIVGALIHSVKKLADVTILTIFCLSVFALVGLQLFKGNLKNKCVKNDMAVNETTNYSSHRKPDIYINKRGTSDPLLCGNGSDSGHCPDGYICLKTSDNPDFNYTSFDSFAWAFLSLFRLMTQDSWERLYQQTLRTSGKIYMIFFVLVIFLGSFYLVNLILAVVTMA
human NaV 1.8, sequence (Q9Y5Y9 660-890 limits assumed): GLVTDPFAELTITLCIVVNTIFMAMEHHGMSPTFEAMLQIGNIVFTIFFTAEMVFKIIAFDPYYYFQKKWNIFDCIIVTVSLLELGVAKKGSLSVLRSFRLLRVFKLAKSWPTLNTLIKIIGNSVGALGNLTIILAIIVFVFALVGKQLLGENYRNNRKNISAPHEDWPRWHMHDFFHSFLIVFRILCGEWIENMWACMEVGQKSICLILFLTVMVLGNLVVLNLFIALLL
human NaV 1.8, sequence (Q9Y5Y9 1148-1722 limits assumed): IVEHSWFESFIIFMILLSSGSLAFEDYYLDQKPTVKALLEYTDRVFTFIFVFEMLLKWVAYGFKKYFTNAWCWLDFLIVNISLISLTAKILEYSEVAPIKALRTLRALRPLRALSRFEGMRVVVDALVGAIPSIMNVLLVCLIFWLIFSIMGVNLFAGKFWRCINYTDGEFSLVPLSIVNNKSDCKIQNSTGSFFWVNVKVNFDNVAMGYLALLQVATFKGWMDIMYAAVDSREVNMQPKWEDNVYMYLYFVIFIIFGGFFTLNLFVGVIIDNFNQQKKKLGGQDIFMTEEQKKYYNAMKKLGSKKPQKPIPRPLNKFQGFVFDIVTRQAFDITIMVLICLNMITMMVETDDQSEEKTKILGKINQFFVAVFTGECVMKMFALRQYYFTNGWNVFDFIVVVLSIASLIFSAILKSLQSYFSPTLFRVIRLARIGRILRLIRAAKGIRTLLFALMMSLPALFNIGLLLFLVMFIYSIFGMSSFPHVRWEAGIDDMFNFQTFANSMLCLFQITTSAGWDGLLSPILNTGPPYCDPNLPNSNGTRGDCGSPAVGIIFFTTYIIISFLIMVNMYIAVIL

IC50 [1] | IC50 (in the presence of human serum (compound numbers followed by *), read-out: IC50 in the E-VIPR Assay, performed in the presence of human serum) | SMILES
< 10 nM | – | COc1c([C@H]2[C@H](C(=O)Nc3cnnc(C(C)(C)O)c3)O[C@@](C)(C(F)(F)F)[C@H]2C)ccc(F)c1F [Compound 219, (2R,3S,4S,5R)-3-(3,4-difluoro-2-methoxy-phenyl)-N-[6-(1-hydroxy-1-methyl-ethyl)pyridazin-4-yl]-4,5-dimethyl-5-(trifluoromethyl)tetrahydrofuran-2-carboxamide]
10 to 100 nM | – | COc1c([C@H]2[C@H](C(=O)Nc3ccc(S(N)(=O)=O)nc3)O[C@@](C)(C(F)(F)F)[C@H]2C)ccc(F)c1F [Compound 235, (2R,3S,4S,5R)-3-(3,4-difluoro-2-methoxy-phenyl)-4,5-dimethyl-N-(6-sulfamoyl-3-pyridyl)-5-(trifluoromethyl)tetrahydrofuran-2-carboxamide]
10 to 100 nM | – | CNS(=O)(=O)c1ccc(NC(=O)[C@@H]2O[C@@](C)(C(F)(F)F)[C@@H](C)[C@H]2c2ccc(F)c(F)c2OC)cn1 [Compound 236, (2R,3S,4S,5R)-3-(3,4-difluoro-2-methoxy-phenyl)-4,5-dimethyl-N-[6-(methylsulfamoyl)-3-pyridyl]-5-(trifluoromethyl)tetrahydrofuran-2-carboxamide]
10 to 100 nM | – | COc1c([C@H]2[C@H](C(=O)Nc3cnc(CCO)nc3)O[C@@](C)(C(F)(F)F)[C@H]2C)ccc(F)c1F [Compound 237, (2R,3S,4S,5R)-3-(3,4-difluoro-2-methoxyphenyl)-N-(2-(2-hydroxyethyl)pyrimidin-5-yl)-4,5-dimethyl-5-(trifluoromethyl)tetrahydrofuran-2-carboxamide]
– | 10 to 100 nM | COc1c(C2C(C(=O)Nc3cc(CO)ncc3C)OC(C)(C(F)(F)F)C2C)ccc(F)c1F (stereo not shown) [Compound 243, 3-(3,4-difluoro-2-methoxy-phenyl)-N-[2-(hydroxymethyl)-5-methyl-4-pyridyl]-4,5-dimethyl-5-(trifluoromethyl)tetrahydrofuran-2-carboxamide]
10 to 100 nM | – | COC[C@@H](O)Cn1cc(NC(=O)[C@@H]2O[C@@](C)(C(F)(F)F)[C@@H](C)[C@H]2c2ccc(F)c(F)c2OC)c(C)n1 [Compound 245, (2R,3S,4S,5R)-3-(3,4-difluoro-2-methoxyphenyl)-N-(1-((S)-2-hydroxy-3-methoxypropyl)-3-methyl-1H-pyrazol-4-yl)-4,5-dimethyl-5-(trifluoromethyl)tetrahydrofuran-2-carboxamide]
< 10 nM | – | COc1c([C@H]2[C@H](C(=O)Nc3cc(CO)ncn3)O[C@@](C)(C(F)(F)F)[C@H]2C)ccc(F)c1F [Compound 246, (2R,3S,4S,5R)-3-(3,4-difluoro-2-methoxyphenyl)-N-(6-(hydroxymethyl)pyrimidin-4-yl)-4,5-dimethyl-5-(trifluoromethyl)tetrahydrofuran-2-carboxamide]
100 to 1000 nM | – | COc1ncc(NC(=O)[C@@H]2O[C@@](C)(C(F)(F)F)[C@@H](C)[C@H]2c2ccc(F)c(F)c2OC)cc1CO [Compound 247, (2R,3S,4S,5R)-3-(3,4-difluoro-2-methoxyphenyl)-N-(5-(hydroxymethyl)-6-methoxypyridin-3-yl)-4,5-dimethyl-5-(trifluoromethyl)tetrahydrofuran-2-carboxamide]
100 to 1000 nM | – | COc1c([C@H]2[C@H](C(=O)Nc3cc(CO)n(C)n3)O[C@@](C)(C(F)(F)F)[C@H]2C)ccc(F)c1F [Compound 263, (2R,3S,4S,5R)-3-(3,4-difluoro-2-methoxyphenyl)-N-(5-(hydroxymethyl)-1-methyl-1H-pyrazol-3-yl)-4,5-dimethyl-5-(trifluoromethyl)tetrahydrofuran-2-carboxamide]
10 to 100 nM | – | COc1c([C@H]2[C@H](C(=O)Nc3ccc4nc(CO)cn4c3)O[C@@](C)(C(F)(F)F)[C@H]2C)ccc(F)c1F [Compound 264, (2R,3S,4S,5R)-3-(3,4-difluoro-2-methoxyphenyl)-N-(2-(hydroxymethyl)imidazo[1,2-a]pyridin-6-yl)-4,5-dimethyl-5-(trifluoromethyl)tetrahydrofuran-2-carboxamide]
≥ 1000 nM | – | COc1c([C@H]2[C@H](C(=O)NC(C)C(N)=O)O[C@@](C)(C(F)(F)F)[C@H]2C)ccc(F)c1F (stereo partly drawn) [Compound 271, (2R,3S,4S,5R)-N-(1-amino-1-oxopropan-2-yl)-3-(3,4-difluoro-2-methoxyphenyl)-4,5-dimethyl-5-(trifluoromethyl)tetrahydrofuran-2-carboxamide]
≥ 1000 nM | – | COc1c([C@H]2[C@H](C(=O)NCC#N)O[C@@](C)(C(F)(F)F)[C@H]2C)ccc(F)c1F [Compound 277, (2R,3S,4S,5R)-N-(cyanomethyl)-3-(3,4-difluoro-2-methoxyphenyl)-4,5-dimethyl-5-(trifluoromethyl)tetrahydrofuran-2-carboxamide]

More lines, now with the values behind:

SMILES | IC50 [1] | IC50 (in the presence of human serum (compound numbers followed by *), read-out: IC50 in the E-VIPR Assay, performed in the presence of human serum)
CNC(=O)c1cn2cc(NC(=O)[C@@H]3O[C@@](C)(C(F)(F)F)[C@@H](C)[C@H]3c3ccc(F)c(F)c3OC)ccc2n1 [Compound 258, 6-((2R,3S,4S,5R)-3-(3,4-difluoro-2-methoxyphenyl)-4,5-dimethyl-5-(trifluoromethyl)tetrahydrofuran-2-carboxamido)-N-methylimidazo[1,2-a]pyridine-2-carboxamide] | 10 to 100 nM | –
COc1c([C@H]2[C@H](C(=O)Nc3ccc4nc(C(=O)N5CCOCC5)cn4c3)O[C@@](C)(C(F)(F)F)[C@H]2C)ccc(F)c1F [Compound 259, (2R,3S,4S,5R)-3-(3,4-difluoro-2-methoxyphenyl)-4,5-dimethyl-N-(2-(morpholine-4-carbonyl)imidazo[1,2-a]pyridin-6-yl)-5-(trifluoromethyl)tetrahydrofuran-2-carboxamide] | 10 to 100 nM | –
COc1c([C@H]2[C@H](C(=O)Nc3ccc4nc(C(=O)NCCO)cn4c3)O[C@@](C)(C(F)(F)F)[C@H]2C)ccc(F)c1F [Compound 260, 6-((2R,3S,4S,5R)-3-(3,4-difluoro-2-methoxyphenyl)-4,5-dimethyl-5-(trifluoromethyl)tetrahydrofuran-2-carboxamido)-N-(2-hydroxyethyl)imidazo[1,2-a]pyridine-2-carboxamide] | 10 to 100 nM | –
COc1c([C@H]2[C@H](C(=O)Nc3ccc4nc(C(=O)N(C)C)cn4c3)O[C@@](C)(C(F)(F)F)[C@H]2C)ccc(F)c1F [Compound 261, 6-((2R,3S,4S,5R)-3-(3,4-difluoro-2-methoxyphenyl)-4,5-dimethyl-5-(trifluoromethyl)tetrahydrofuran-2-carboxamido)-N,N-dimethylimidazo[1,2-a]pyridine-2-carboxamide] | 10 to 100 nM | –
COc1c([C@H]2[C@H](C(=O)NC3CCOCC3)O[C@@](C)(C(F)(F)F)[C@H]2C)ccc(F)c1F [Compound 269, (2R,3S,4S,5R)-3-(3,4-difluoro-2-methoxyphenyl)-4,5-dimethyl-N-(tetrahydro-2H-pyran-4-yl)-5-(trifluoromethyl)tetrahydrofuran-2-carboxamide] | ≥ 1000 nM | –
COc1c([C@H]2[C@H](C(=O)NCC3CC3)O[C@@](C)(C(F)(F)F)[C@H]2C)ccc(F)c1F [Compound 270, (2R,3S,4S,5R)-N-(cyclopropylmethyl)-3-(3,4-difluoro-2-methoxyphenyl)-4,5-dimethyl-5-(trifluoromethyl)tetrahydrofuran-2-carboxamide] | 100 to 1000 nM | –
COc1c([C@H]2[C@H](C(=O)NCCc3ncc[nH]3)O[C@@](C)(C(F)(F)F)[C@H]2C)ccc(F)c1F [Compound 272, (2R,3S,4S,5R)-3-(3,4-difluoro-2-methoxy-phenyl)-N-[2-(1H-imidazol-2-yl)ethyl]-4,5-dimethyl-5-(trifluoromethyl)tetrahydrofuran-2-carboxamide] | ≥ 1000 nM | –
COc1c([C@H]2[C@H](C(=O)NC3CCN(C(C)=O)CC3)O[C@@](C)(C(F)(F)F)[C@H]2C)ccc(F)c1F [Compound 273, (2R,3S,4S,5R)-N-(1-acetylpiperidin-4-yl)-3-(3,4-difluoro-2-methoxyphenyl)-4,5-dimethyl-5-(trifluoromethyl)tetrahydrofuran-2-carboxamide] | ≥ 1000 nM | –
COc1c([C@H]2[C@H](C(=O)NC3CCCN(C(C)=O)C3)O[C@@](C)(C(F)(F)F)[C@H]2C)ccc(F)c1F (stereo partly drawn) [Compound 274, (2R,3S,4S,5R)-N-(1-acetylpiperidin-3-yl)-3-(3,4-difluoro-2-methoxyphenyl)-4,5-dimethyl-5-(trifluoromethyl)tetrahydrofuran-2-carboxamide] | ≥ 1000 nM | –
COc1c([C@H]2[C@H](C(=O)NC(C)c3ccn[nH]3)O[C@@](C)(C(F)(F)F)[C@H]2C)ccc(F)c1F (stereo partly drawn) [Compound 275, (2R,3S,4S,5R)-N-(1-(1H-pyrazol-5-yl)ethyl)-3-(3,4-difluoro-2-methoxyphenyl)-4,5-dimethyl-5-(trifluoromethyl)tetrahydrofuran-2-carboxamide] | ≥ 1000 nM | –
COCC1(CNC(=O)[C@@H]2O[C@@](C)(C(F)(F)F)[C@@H](C)[C@H]2c2ccc(F)c(F)c2OC)CCC1 [Compound 276, (2R,3S,4S,5R)-3-(3,4-difluoro-2-methoxyphenyl)-N-((1-(methoxymethyl)cyclobutyl)methyl)-4,5-dimethyl-5-(trifluoromethyl)tetrahydrofuran-2-carboxamide] | ≥ 1000 nM | –
COc1c([C@H]2[C@H](C(=O)NC3CN(C)C3)O[C@@](C)(C(F)(F)F)[C@H]2C)ccc(F)c1F [Compound 278, (2R,3S,4S,5R)-3-(3,4-difluoro-2-methoxyphenyl)-4,5-dimethyl-N-(1-methylazetidin-3-yl)-5-(trifluoromethyl)tetrahydrofuran-2-carboxamide] | ≥ 1000 nM | –
COc1c([C@H]2[C@H](C(=O)NCC3CCOC3)O[C@@](C)(C(F)(F)F)[C@H]2C)ccc(F)c1F (stereo partly drawn) [Compound 279, (2R,3S,4S,5R)-3-(3,4-difluoro-2-methoxyphenyl)-4,5-dimethyl-N-((tetrahydrofuran-3-yl)methyl)-5-(trifluoromethyl)tetrahydrofuran-2-carboxamide] | ≥ 1000 nM | –
